In PubChem BioAssay (NCI):
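Step 1: Grow cells in 96-well plates. Step 2: Expose to compound for 48 hours at 5 concentrations. Step 3: Interpolate endpoints linearly; if unreached, use highest concentration. Here, GI50 denotes the concentration required for 50% inhibition of growth. TGI is the concentration that stops growth completely.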

Legend:
Assay in all cases: inhibition of tumour cell growth, NCI panel, 48 h
HS 578T breast = test system: HS 578T breast
SF-268 CNS = test system: SF-268 CNS
HCT-116 colon = test system: HCT-116 colon
T-47D breast = test system: T-47D breast
OVCAR-3 ovarian = test system: OVCAR-3 ovarian
ACHN renal = test system: ACHN renal
MDA-MB-435 = test system: MDA-MB-435
UACC-62 melanoma = test system: UACC-62 melanoma
786-0 renal = test system: 786-0 renal
SK-OV-3 ovarian = test system: SK-OV-3 ovarian

SMILES | TGI (HS 578T breast) | TGI (SF-268 CNS) | TGI (HCT-116 colon) | TGI (T-47D breast) | TGI (OVCAR-3 ovarian) | TGI (ACHN renal) | TGI (MDA-MB-435) | TGI (UACC-62 melanoma) | TGI (786-0 renal) | TGI (SK-OV-3 ovarian) | GI50 (HS 578T breast) | GI50 (SF-268 CNS) | GI50 (HCT-116 colon) | GI50 (T-47D breast) | GI50 (SK-OV-3 ovarian) | GI50 (OVCAR-3 ovarian) | GI50 (ACHN renal) | GI50 (MDA-MB-435) | GI50 (UACC-62 melanoma)
COc1ccc2ccc3oc(=O)c(C)cc3c2c1 | > 100 µM | > 100 µM | > 100 µM | > 100 µM | > 100 µM | > 100 µM | > 100 µM | > 100 µM | > 100 µM |  |  |  |  |  |  |  |  |  | 
CCCCCCN(CCCCCC)C(=S)N/N=C(\C)c1ccccn1 | 4.46 µM | 3.52 µM | 2.39 µM | 1.91 µM | 2.83 µM | 2.17 µM | 3.7 µM | 3.5 µM | 2.38 µM | 2.77 µM |  |  |  |  |  |  |  |  | 
CN(C)c1nc(Oc2nc(N(C)C)nc(N(C)C)n2)nc(N(C)C)n1 |  | > 100 µM | > 100 µM |  | > 100 µM | > 100 µM |  | > 100 µM | > 100 µM | > 100 µM |  |  |  |  |  |  |  |  | 
CCCCCCCC(=O)OCC(COC(=O)C(C)(C)C)OC(=O)Cc1ccccc1 (stereo not drawn) |  | > 100 µM | > 100 µM |  | > 100 µM | > 100 µM |  | > 100 µM | > 100 µM | > 100 µM |  |  |  |  |  |  |  |  | 
O=c1c(F)cn2c(=O)n1CCCCCCCn1c(=O)c(F)cn(c1=O)CCCCCCC2 |  | 13.1 µM | > 100 µM | > 100 µM | > 100 µM | > 100 µM | > 100 µM | > 100 µM | > 100 µM | > 100 µM |  |  |  |  |  |  |  |  | 
Cc1nnc2n(c1=O)CCCN2C | > 100 µM | > 100 µM | > 100 µM | > 100 µM | > 100 µM | > 100 µM | > 100 µM | > 100 µM | > 100 µM | > 100 µM |  |  |  |  |  |  |  |  | 
O=C(ON=C1c2ccccc2C(Br)C(Br)c2ccccc21)c1ccccc1 (stereo not drawn) | 53.6 µM | 42.3 µM | 28 µM | 29.3 µM | 28.7 µM | 33 µM | 34.9 µM | 32.7 µM | 23 µM | 38.9 µM |  |  |  |  |  |  |  |  | 
Nc1ncnc2c1nnn2C1C=CC(CP(=O)(O)O)C1 (stereo not drawn) | > 100 µM | > 100 µM | > 100 µM | > 100 µM | > 100 µM | > 100 µM |  | > 100 µM | > 100 µM | > 100 µM |  |  |  |  |  |  |  |  | 
CN(C)CCn1c(=O)c2ccc(NCCCN(C)CCCNc3ccc4c(=O)n(CCN(C)C)c(=O)n5c6ccc(O)cc6c(=O)c3c45)c3c(=O)c4cc(O)ccc4n(c1=O)c23 |  | 1.04 µM | 0.49 µM | 10.2 µM |  | 0.726 µM | 0.18 µM | 0.215 µM | 1.05 µM | 2.4 µM |  |  |  |  |  |  |  |  | 
CC(=O)c1ccc(Oc2c3ccccc3nc3ccccc23)cc1 | 31.3 µM | 17.9 µM | 8.81 µM | 18 µM | 21 µM | 15.9 µM | 10.5 µM | 17 µM | 9.61 µM | 29.3 µM |  |  |  |  |  |  |  |  | 
Cn1c2ccccc2n2c3ncccc3c(=O)c(C#N)c12 | > 94.1 µM | > 100 µM | > 59 µM | > 100 µM | > 100 µM | 11.7 µM | > 100 µM | 28.4 µM | > 81 µM | 98.1 µM |  |  |  |  |  |  |  |  | 
CCCCCCCCCCCCCCCCCCOc1ccccc1CC(=O)NCC[N+]1(C)CCOCC1 | 9.56 µM | 31.2 µM | > 100 µM | 39.2 µM | 34.2 µM | 44.6 µM | 32.9 µM | 30.7 µM |  | 32.4 µM | 2.38 µM | 2.77 µM | 4.71 µM | 6.85 µM | 13.9 µM | 4.43 µM | 16 µM | 7.85 µM | 4.31 µM
S=C(Cc1ccc2c(c1)Sc1ccccc1O2)N1CCOCC1 | 61.6 µM | > 100 µM | > 100 µM | > 100 µM | > 100 µM | > 100 µM | > 100 µM | > 100 µM | > 100 µM | > 100 µM |  |  |  |  |  |  |  |  | 
C[n+]1cc2cc(O)c(O)cc2c2ccc3cc(O)c(O)cc3c21 |  | 13.5 µM | 4.21 µM | > 100 µM | 7.96 µM | > 100 µM | > 100 µM | 5.34 µM | 9.21 µM | > 53 µM |  |  |  |  |  |  |  |  | 
COc1ccc(N=Nc2c(-c3c(OC)cc4occc4c3OC)[nH]c(=O)c(C#N)c2C)cc1 | > 100 µM | > 100 µM | > 100 µM | > 100 µM | > 100 µM | > 100 µM | > 100 µM | > 100 µM | > 100 µM | > 100 µM |  |  |  |  |  |  |  |  | 
c1ccc2c(c1)SCCCS2 |  | > 100 µM | > 100 µM | > 100 µM | > 100 µM |  | > 100 µM | > 100 µM | > 100 µM | > 100 µM |  |  |  |  |  |  |  |  | 
O=[N+]([O-])c1ccc(C[P+]2(c3ccccc3)CCCCC2)cc1 |  |  | > 100 µM |  | > 100 µM | > 100 µM |  | > 100 µM | > 100 µM | > 100 µM |  |  |  |  |  |  |  |  | 
Cc1nc2ccc(Cl)cc2c(-n2ccnc2)c1CCn1ccnc1 | 49.1 µM | > 100 µM | > 100 µM |  | > 100 µM | 83.6 µM | > 100 µM | 62.5 µM | 3.2 µM | > 100 µM |  |  |  |  |  |  |  |  | 
Cn1nc(-c2ccc(S(=O)(=O)/N=C(\NN)Nc3ccc(Cl)cc3)s2)cc1C(F)(F)F |  | 32.6 µM | 29.2 µM | 27.6 µM | 36.4 µM | 33.8 µM |  | 31.1 µM | 30.6 µM | 41.9 µM |  |  |  |  |  |  |  |  | 
C[C@]12CCC3[C@@H](CCC45OC4C(=O)CC[C@]35C)C1Cc1cnn(-c3ccc(F)cc3)c1N2 (stereo partly drawn) |  | 77.8 µM | 29 µM |  |  | > 100 µM |  | 68.9 µM | 35.2 µM | > 100 µM |  |  |  |  |  |  |  |  | 
Clc1cccc(-c2sc(-c3cccs3)cc2Cc2cccs2)c1 | > 10 µM | > 10 µM | > 10 µM | > 10 µM |  | > 10 µM | > 10 µM | > 10 µM | > 10 µM | > 10 µM |  |  |  |  |  |  |  |  | 
COc1cc(C)c(CC/C(C)=C/Cc2cc(O)ccc2O)c(C)c1C |  | > 25 µM | > 25 µM |  | > 25 µM | > 25 µM |  |  | > 25 µM | > 25 µM |  |  |  |  |  |  |  |  | 
